From paper PMC10354012, “Cloxyquin activates hTRESK by allosteric modulation of the selectivity filter” (Communications Biology, 2023) come the findings set out here.

In this assay the target is T1, hTRESK (TWIK-related spinal cord K+ channel, K2P18.1) (Homo sapiens, UniProt Q7Z418).
T1 construct: gene KCNK18; homodimeric hTRESK WT expressed in Xenopus laevis oocytes
T1 sequence (Q7Z418 1-384): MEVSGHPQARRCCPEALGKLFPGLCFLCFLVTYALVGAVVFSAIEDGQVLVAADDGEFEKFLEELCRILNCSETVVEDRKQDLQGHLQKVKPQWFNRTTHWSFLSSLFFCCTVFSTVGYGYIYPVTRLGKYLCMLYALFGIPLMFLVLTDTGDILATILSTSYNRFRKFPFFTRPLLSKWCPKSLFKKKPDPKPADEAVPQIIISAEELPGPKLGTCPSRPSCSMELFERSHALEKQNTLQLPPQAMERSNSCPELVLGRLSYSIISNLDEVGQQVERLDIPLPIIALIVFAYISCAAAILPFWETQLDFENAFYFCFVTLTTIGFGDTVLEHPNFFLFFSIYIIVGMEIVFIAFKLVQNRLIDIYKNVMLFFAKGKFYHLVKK
Kind of assay: TEVC dose-response in Xenopus oocytes, supported by alanine scan. The assay is classed as cell-based.

Turning to `Oc1ccc(Cl)c2cccnc12` [clx, 5-chloro-8-hydroxyquinoline], the EC50 (as a rule, the concentration giving half of the maximal effect) was 64 ± 11 µM.
